Among the data in ChEMBL document CHEMBL2074427, “Identification of a mechanism by which the methylmercury antidotes N-acetylcysteine and dimercaptopropanesulfonate enhance urinary metal excretion: transport by the renal organic anion transporter-1” (Mol Pharmacol, 2002) are Ki, Km and Activity values, retold here.

Data set [1] has as its target T1, Solute carrier family 22 member 6 (Rattus norvegicus, UniProt O35956).
T1 sequence (O35956 whole entry): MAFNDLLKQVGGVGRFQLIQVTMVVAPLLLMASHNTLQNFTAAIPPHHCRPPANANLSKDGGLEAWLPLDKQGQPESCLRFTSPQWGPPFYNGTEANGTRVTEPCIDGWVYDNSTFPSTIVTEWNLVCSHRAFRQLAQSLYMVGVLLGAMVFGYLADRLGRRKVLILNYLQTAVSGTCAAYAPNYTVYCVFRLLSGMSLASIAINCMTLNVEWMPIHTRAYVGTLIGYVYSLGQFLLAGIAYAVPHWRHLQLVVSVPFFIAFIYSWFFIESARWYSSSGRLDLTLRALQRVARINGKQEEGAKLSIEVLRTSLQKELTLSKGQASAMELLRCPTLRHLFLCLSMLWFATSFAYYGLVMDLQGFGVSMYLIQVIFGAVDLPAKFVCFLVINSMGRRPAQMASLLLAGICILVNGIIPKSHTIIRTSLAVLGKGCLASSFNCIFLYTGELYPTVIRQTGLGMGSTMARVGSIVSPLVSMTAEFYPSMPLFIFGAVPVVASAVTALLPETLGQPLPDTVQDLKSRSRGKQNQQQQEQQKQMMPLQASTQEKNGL
The data set is described as follows: TP_TRANSPORTER: inhibition of PAH uptake in Xenopus laevis oocytes. In kind it is functional, cell-based, Oocyte.

Data set [2] has as its target T1, Solute carrier family 22 member 6. The data set is described as follows: (§1) TP_TRANSPORTER: uptake in Xenopus laevis oocytes. In kind it is functional, cell-based. To be noted: oocyte.
The target of data set [3] is T2, Organic anion transporter 3 (Rattus norvegicus, UniProt Q9R1U7).
T2 sequence (Q9R1U7 whole entry): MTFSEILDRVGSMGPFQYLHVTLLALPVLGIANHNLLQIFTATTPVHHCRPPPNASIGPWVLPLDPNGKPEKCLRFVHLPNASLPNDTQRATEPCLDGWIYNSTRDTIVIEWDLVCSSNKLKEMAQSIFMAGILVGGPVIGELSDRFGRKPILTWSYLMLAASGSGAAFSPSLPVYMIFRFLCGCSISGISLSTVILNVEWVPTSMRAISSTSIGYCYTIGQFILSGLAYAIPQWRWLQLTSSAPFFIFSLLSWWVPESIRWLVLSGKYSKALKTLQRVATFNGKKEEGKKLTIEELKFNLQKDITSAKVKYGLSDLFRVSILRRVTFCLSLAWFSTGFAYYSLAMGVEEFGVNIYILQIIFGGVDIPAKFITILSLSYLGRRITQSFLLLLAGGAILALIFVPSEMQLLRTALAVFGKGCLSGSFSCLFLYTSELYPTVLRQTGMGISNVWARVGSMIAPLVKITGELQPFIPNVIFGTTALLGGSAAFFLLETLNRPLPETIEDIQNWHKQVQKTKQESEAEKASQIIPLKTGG
Described as §1. To be noted: oocyte. In kind it is functional, cell-based.

`CC(=O)N[C@@H](CS)C(=O)O` [ACETYLCYSTEINE] showed a Ki in data set [1] of 2000 µM.
For the compound MeHg-NAC, the Km in data set [2] was determined as 31 µM. In addition, in data set [3], the Activity result is “is not a substrate [-]”.
On to MeHg-glutathione, for which the Activity result in data set [2] and in data set [3] was “is not a substrate [-]” throughout.
With MeHg-penicillamine, the Activity entry in data set [2] and in data set [3] was “is not a substrate [-]” in each case.
